Here are results for 23 compounds from ChEMBL document CHEMBL1177724, “Design, synthesis, and structure-activity relationship studies of novel 2,4,6-trisubstituted-5-pyrimidinecarboxylic acids as peroxisome proliferator-activated receptor gamma (PPARgamma) partial agonists with comparable antidiabetic efficacy to rosiglitazone” (J Med Chem, 2010).

Substitutions are numbered along the chain they refer to. Converted amounts (≈) assume the structure as drawn. The source made the active and inactive calls. The rule behind the calls is not given here. Bounds are passed on as bounds.

Data set [1] is described as follows: Solubility in water. It counts as physicochemical.
For data set [2], the target named is T1, Peroxisome proliferator-activated receptor gamma (Homo sapiens, UniProt P37231).
T1 sequence (P37231 whole entry): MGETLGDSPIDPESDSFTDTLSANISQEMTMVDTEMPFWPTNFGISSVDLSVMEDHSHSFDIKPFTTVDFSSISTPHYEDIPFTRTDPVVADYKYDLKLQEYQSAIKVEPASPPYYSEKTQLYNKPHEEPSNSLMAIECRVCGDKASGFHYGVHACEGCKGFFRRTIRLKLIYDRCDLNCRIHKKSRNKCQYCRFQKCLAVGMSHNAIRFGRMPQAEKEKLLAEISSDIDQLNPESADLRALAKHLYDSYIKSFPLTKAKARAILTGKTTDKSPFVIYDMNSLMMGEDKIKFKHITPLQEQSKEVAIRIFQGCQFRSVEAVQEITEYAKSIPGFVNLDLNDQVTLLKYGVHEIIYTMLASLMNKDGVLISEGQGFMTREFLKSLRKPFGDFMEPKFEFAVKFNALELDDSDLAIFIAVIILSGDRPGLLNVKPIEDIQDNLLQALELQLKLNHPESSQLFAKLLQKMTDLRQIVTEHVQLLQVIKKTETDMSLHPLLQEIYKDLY
Description: Partial agonist activity at human PPARgamma-LBD expressed in CHO-K1 cells co-transfected with GAL4 assessed as luciferase activity by transactivation assay

The subject of data set [3] is Mus musculus. As to the kind of experiment: Antidiabetic activity in db/db mouse assessed as weight gain at 3 to 10 mg/kg, po qd for 7 days. It counts as functional, organism-based.
For data set [4], the system named is Mus musculus. As to the kind of experiment: Antidiabetic activity in db/db mouse assessed as reduction of plasma glucose level at 10 mg/kg, po qd for 7 days. In kind it is functional. On the set-up: scale not given: the % may be the effect or the level left.
The subject of data set [5] is 3T3-L1. Briefly: Induction of adipogenesis in mouse mature 3T3L1 cells assessed as P2 mRNA expression level after 10 days […]. In kind it is cell-based. As to conditions: 3t3-l1, 240 h.
Data set [6] deals with 3T3-L1. Briefly: Induction of adipogenesis in mouse blast 3T3L1 cells assessed as P2 mRNA expression level after 7 days […]. In kind it is cell-based. As to conditions: 3t3-l1, 168 h.
The subject of data set [7] is 3T3-L1. Briefly: Induction of adipogenesis in mouse 3T3L1 cells assessed as increase in lipid accumulation by Oil red O staining.
In data set [8] the target is T2, Peroxisome proliferator-activated receptor gamma (Homo sapiens) (UniProt P37231).
T2 sequence (whole entry): T1 sequence (P37231 whole entry)
Briefly: Partial agonist activity at human PPARgamma-LBD expressed in CHO-K1 cells co-transfected with GAL4 assessed as luciferase activity at […] by transactivation assay relative to rosiglitazone. It counts as functional, cell-based.

Data set [9] has as its target T2, Peroxisome proliferator-activated receptor gamma (Homo sapiens). As to the kind of experiment: Partial agonist activity at human PPARgamma-LBD expressed in CHO-K1 cells co-transfected with GAL4 assessed as luciferase activity at 10 uM by transactivation assay. It counts as functional, cell-based.
For data set [10], the system named is Mus musculus. Briefly: Antidiabetic activity in db/db mouse assessed as weight gain at 10 to 100 mg/kg, po qd for 7 days. In kind it is functional, organism-based.
Data set [11] concerns Mus musculus. Briefly: Antidiabetic activity in db/db mouse assessed as reduction of plasma glucose level at 100 mg/kg, po qd for 7 days. It counts as functional. Set-up: scale not given: the % may be the effect or the level left.
The subject of data set [12] is Mus musculus. Briefly: Antidiabetic activity in db/db mouse assessed as reduction of plasma glucose level at 30 mg/kg, po qd for 7 days. It counts as functional. Set-up: scale not given: the % may be the effect or the level left.
Data set [13] is described as follows: Oral bioavailability in mouse at 1 mg/kg. In kind it is ADME, organism-based. The note with it: in vivo.
The nature of data set [14]: AUC in mouse at 1 mg/kg, iv. It counts as ADME, organism-based. On the set-up: dose 1 mg/kg, route intravenous. As to conditions: plasma.
Data set [15] is described as follows: Half life in mouse at 1 mg/kg, iv. It counts as ADME, organism-based. Set-up: dose 1 mg/kg, route intravenous. The note with it: in vivo.
Data set [16] in a line: Volume of distribution in mouse at 1 mg/kg, iv. As to conditions: in vivo. In kind it is ADME, organism-based. Set-up: dose 1 mg/kg, route intravenous.
Data set [17] is described as follows: Clearance in mouse at 1 mg/kg, iv. It counts as ADME, organism-based. On the set-up: dose 1 mg/kg, route intravenous. The note with it: in vivo.
A short description of data set [18]: AUC in mouse at 1 mg/kg, po. It counts as ADME, organism-based. On the set-up: dose 1 mg/kg, route oral. As to conditions: plasma.
Data set [19] in a line: Plasma concentration in mouse at 1 mg/kg, iv after 10 mins. In kind it is ADME, organism-based. Set-up: dose 1 mg/kg, route intravenous.
Data set [20] addresses T3, Peroxisome proliferator-activated receptor gamma (Rattus norvegicus, UniProt O88275).
T3 sequence (O88275 whole entry): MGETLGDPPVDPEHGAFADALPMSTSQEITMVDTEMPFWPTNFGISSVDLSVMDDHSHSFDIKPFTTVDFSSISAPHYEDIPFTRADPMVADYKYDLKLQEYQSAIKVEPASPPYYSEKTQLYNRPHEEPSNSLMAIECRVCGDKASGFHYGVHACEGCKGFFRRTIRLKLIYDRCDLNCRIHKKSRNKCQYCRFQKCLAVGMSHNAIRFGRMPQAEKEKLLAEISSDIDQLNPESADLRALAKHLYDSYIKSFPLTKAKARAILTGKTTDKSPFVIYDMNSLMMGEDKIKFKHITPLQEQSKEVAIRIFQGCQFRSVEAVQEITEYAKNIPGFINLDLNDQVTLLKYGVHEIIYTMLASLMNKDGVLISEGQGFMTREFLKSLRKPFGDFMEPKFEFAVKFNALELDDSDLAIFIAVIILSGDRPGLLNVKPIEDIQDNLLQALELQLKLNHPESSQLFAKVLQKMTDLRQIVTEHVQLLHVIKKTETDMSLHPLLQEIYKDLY
Description: Antagonist activity at rat PPARgamma-LBD expressed in CHO-K1 cells co-transfected with GAL4 assessed as inhibition of rosiglitazone-induced luciferase activity by transactivation assay

The target of data set [21] is T1, Peroxisome proliferator-activated receptor gamma. The source holds these as a separate data set.
Description: Antagonist activity at human PPARgamma-LBD expressed in CHO-K1 cells co-transfected with GAL4 assessed as inhibition of rosiglitazone-induced luciferase activity by transactivation assay
Data set [22] deals with T3, Peroxisome proliferator-activated receptor gamma. The source holds these as a separate data set.
Description: Partial agonist activity at rat PPARgamma-LBD expressed in CHO-K1 cells co-transfected with GAL4 assessed as luciferase activity by transactivation assay
For data set [23], the target named is T4, Peroxisome proliferator-activated receptor gamma (Mus musculus, UniProt P37238).
T4 sequence (P37238 whole entry): T3 sequence (O88275 whole entry) with P8S, D54E, S383N
Description: Antagonist activity at mouse PPARgamma-LBD expressed in CHO-K1 cells co-transfected with GAL4 assessed as inhibition of rosiglitazone-induced luciferase activity by transactivation assay

In data set [24] the target is T4, Peroxisome proliferator-activated receptor gamma. This is another data set of the same source.
Description: Partial agonist activity at mouse PPARgamma-LBD expressed in CHO-K1 cells co-transfected with GAL4 assessed as luciferase activity by transactivation assay

`CSc1nc(NCc2ccccc2)c(C(=O)O)c(SCc2ccccc2)n1` came in with a solubility in [1] of less than 1 µg/mL. For the same compound, the EC50 in data set [2] came out at 180 nM.
For `CN(CCOc1ccc(CC2SC(=O)NC2=O)cc1)c1ccccn1` (stereo not drawn) [ROSIGLITAZONE], the outcome in data set [3] was inactive. The Activity in data set [4] is given as 67%; in data set [5], “Dose-dependent effect”; in [6], “Dose-dependent effect”; in data set [7], “Active”.
In turn, `CCCCN(CCCC)c1nc(NCc2ccccc2)c(C(=O)O)c(SCc2ccccc2)n1` returned a half-maximal effective concentration (EC50) in [2] of more than 10000 nM.
Take `CSc1nc(NCc2cccnc2)c(C(=O)O)c(SCc2ccccc2)n1`: in data set [2], the EC50 was 740 nM.
On the same count and under the same terms, the result for `CCCCSc1nc(NCc2ccccc2)c(C(=O)O)c(SCc2ccccc2)n1` reads 550 nM.
Still for that read-out and setting: the value for `O=C(O)c1c(NCc2ccccc2)ncnc1SCc1ccccc1` was more than 10000 nM.
As for `CSc1nc(NCc2ccccc2)c(C(=O)O)c(-c2cccs2)n1`, the outcome in [8] was inactive. The compound further returned an EC50 in data set [2] of more than 10000 nM.
Consider `CSc1nc(Nc2ccccc2)c(C(=O)O)c(SCc2ccccc2)n1`, for which the EC50 in data set [2] stood at 1600 nM.
Same read-out and setting: the result for `CSc1nc(NCCc2ccccc2)c(C(=O)O)c(SCc2ccccc2)n1` reads 670 nM.
In the case of `CSc1nc(C)c(C(=O)NCc2ccccc2)c(NCc2ccccc2)n1`, the result in data set [9] was inactive.
Consider `CSc1nc(SCc2ccccc2)c(C(=O)O)c(SCc2ccccc2)n1`, for which, in data set [10], the result was inactive. Further, the Activity in data set [11] is reported as 77%; in [12] it was 56%; in data set [4], 27%; in data set [6], “Not Active”; in [7], “Active”. In addition, in data set [13], the bioavailability was 35.8%. In addition, the AUC amounted to 8860 ng·h/mL in [14] and 3170 ng·h/mL in data set [18]. The compound also showed a half-life in data set [15] of 45.6 min. Moreover, in data set [16], the Vd was found to be 0.12 L/kg. Moreover, in [17], the clearance amounted to 1.88 mL/min/kg. The amount in solution in data set [1] (solubility) came to 43.7 µg/mL (≈ 105 µM). The same compound had a concentration at 10 min in data set [19] of 6890 ng/mL. The IC50 in data set [20] was 539 nM; in data set [21] it was 1790 nM; in data set [23] it was 1770 nM. For the same compound, the EC50 in data set [22] came to 158 nM; in [2] it was 140 nM; in [24] it was 158 nM.
In turn, `CSc1nc(NCC2CCCCC2)c(C(=O)O)c(SCc2ccccc2)n1` had an EC50 in data set [2] of 300 nM.
Same read-out and setting: the result for `CCCCCCCNc1nc(NCc2ccccc2)c(C(=O)O)c(SCc2ccccc2)n1` reads 250 nM; that for `CSc1nc(NCc2ccccc2)c(C(=O)O)c(OCc2ccccc2)n1`, 2300 nM; that for `CCCCNc1nc(NCc2ccccc2)c(C(=O)O)c(SCc2ccccc2)n1`, 470 nM.
Same read-out and setting: the value for `CSc1nc(NCc2ccccn2)c(C(=O)O)c(SCc2ccccc2)n1` was 250 nM.
In turn, `CCCCN(C)c1nc(NCc2ccccc2)c(C(=O)O)c(SCc2ccccc2)n1` gave an EC50 in data set [2] of 420 nM.
The same measure, in the same setting: the result for `CSc1nc(Cl)c(C(=O)NCc2ccccc2)c(NCc2ccccc2)n1` reads 5000 nM.
Take `CSc1nc(NC2CC2)c(C(=O)O)c(SCc2ccccc2)n1`: the EC50 in data set [2] was found to be 1800 nM.
Take `CSc1nc(NCc2ccncc2)c(C(=O)O)c(SCc2ccccc2)n1`: the EC50 in data set [2] stood at 2700 nM.
`CCCNc1nc(SC)nc(SCc2ccccc2)c1C(=O)O` displayed a concentration for a half-maximal effect (EC50) in [2] of more than 10000 nM.
Still for that read-out and setting: the value for `CCCCCCCCSc1nc(NCc2ccccc2)c(C(=O)O)c(SCc2ccccc2)n1` was 950 nM.
Same read-out and setting: the value for `CNc1nc(SC)nc(SCc2ccccc2)c1C(=O)O` was more than 10000 nM.

The term solubility denotes the dissolved amount per volume that the medium holds. For orientation: EC50 means the concentration needed to bring the measured effect to its halfway point. The term bioavailability denotes dose-corrected exposure relative to a reference, in per cent. For orientation: AUC means the area under the concentration-time curve, a measure of exposure. As usually defined, the half-life is the time in which the quantity being followed falls by half. As a reminder, the Vd is a proportionality between amount in the body and measured concentration, not a real space. As a reminder, the clearance is the volume of plasma or blood freed of the substance per unit of time. One may read the IC50 as the concentration that inhibits the measured activity by half.
